Source: patent publication US10975077B2 (Novira Therapeutics, Inc., priority 2016, dated 2021)

These compounds were tested on HBV (encapsidated HBV DNA, HepG2.2.15 cells) (assay: HBV replication inhibition assay, BDNA assay in HepG2.2.15 cells). Settings: Hepatitis B virus, HepG2.2.15, Activity in BDNA-assay.
Assay type: cell-based
In short: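 Encapsidated HBV DNA in DNase-treated, proteinase K-lysed supernatant was measured by branched DNA after 6 days' compound exposure, refreshed on day 3, of HepG2.2.15 cells in 0.5% DMSO. Signals normalized to DMSO-treated wells; EC50 from nonlinear regression of inhibition against log concentration.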

Row | SMILES | EC50 [µM]
1 | COC(=O)c1cn2nc3c(c2c(=O)n1C)CN(C(=O)Nc1ccc(F)c(Cl)c1)CC3 [Compound 040, methyl 2-((3-chloro-4-fluorophenyl)carbamoyl)-9-methyl-10-oxo-1,2,3,4,9,10-hexahydropyrido[4′,3′:3,4]pyrazolo[1,5-a]pyrazine-8-carboxylate] | 0.1 to 0.5
2 | Cn1c(CO)cn2nc3c(c2c1=O)CN(C(=O)Nc1ccc(F)c(Cl)c1)CC3 [Compound 041, N-(3-chloro-4-fluorophenyl)-8-(hydroxymethyl)-9-methyl-10-oxo-3,4,9,10-tetrahydropyrido[4′,3′:3,4]pyrazolo[1,5-a]pyrazine-2 (1H)-carboxamide] | 0.001 to 0.1
3 | Cn1c(C(=O)O)cn2nc3c(c2c1=O)CN(C(=O)Nc1ccc(F)c(Cl)c1)CC3 [Compound 042, 2-((3-chloro-4-fluorophenyl)carbamoyl)-9-methyl-10-oxo-1,2,3,4,9,10-hexahydropyrido[4′,3′:3,4]pyrazolo[1,5-a]pyrazine-8-carboxylic acid] | > 1
4 | COC(=O)C1Cn2nc3c(c2C(=O)N1C)CN(C(=O)Nc1ccc(F)c(Cl)c1)CC3 (stereo not shown) [Compound 043, methyl 2-((3-chloro-4-fluorophenyl)carbamoyl)-9-methyl-10-oxo-1,2,3,4,7,8,9,10-octahydropyrido[4′,3′:3,4]pyrazolo[1,5-a]pyrazine-8-carboxylate] | 0.1 to 0.5
5 | CN1C(=O)c2c3c(nn2CC1CO)CCN(C(=O)Nc1ccc(F)c(Cl)c1)C3 (stereo not shown) [Compound 044, N-(3-chloro-4-fluorophenyl)-8-(hydroxymethyl)-9-methyl-10-oxo-3,4,7,8,9,10-hexahydropyrido[4′,3′:3,4]pyrazolo[1,5-a]pyrazine-2 (1H)-carboxamide] | 0.001 to 0.1
6 | CN1CCn2nc3c(c2C1=O)CN(C(=O)Nc1ccc(F)c(Cl)c1)CC3 [Compound 045, N-(3-chloro-4-fluorophenyl)-9-methyl-10-oxo-3,4,7,8,9,10-hexahydropyrido[4′,3′:3,4]pyrazolo [1,5-a]pyrazine-2 (1H)-carboxamide] | 0.001 to 0.1
7 | CN1CCCn2nc3c(c2C1)CN(C(=O)Nc1ccc(F)c(Cl)c1)CC3 [Compound 046, N-(3-chloro-4-fluorophenyl)-10-methyl-1,3,4,7,8,9,10,11-octahydro-2H-pyrido[4′,3′:3,4]pyrazolo[1,5-a][1,4]diazepine-2-carboxamide] | > 1
8 | CN1CC(C(O)CC2CC2)Cn2nc3c(c2C1=O)CN(C(=O)Nc1ccc(F)c(Cl)c1)CC3 (stereo not shown) [Compound 047, N-(3-chloro-4-fluoro-phenyl)-8-(2-cyclopropyl-1-hydroxy-ethyl)-10-methyl-1-oxo-1,3,4,7,8,9-hexahydropyrido[2,3]pyrazolo[2,4-b][1,4]diazepine-2-carboxamide] | 0.001 to 0.1
9 | C[C@@H]1Cc2nn3c(c2CN1C(=O)Nc1ccc(F)c(Cl)c1)C(=O)N(CC(C)(C)O)CCC3 [Compound 048] | 0.1 to 0.5
10 | C[C@@H]1Cc2nn3c(c2CN1C(=O)Nc1ccc(F)c(Cl)c1)C(=O)N(CCO)CCC3 [Compound 049, (3R)— N-(3-chloro-4-fluorophenyl)-10-(2-hydroxyethyl)-3-methyl-11-oxo-1,3,4,7,8,9,10,11-octahydro-2H-pyrido[4′,3′:3,4]pyrazolo[1,5-a][1,4]diazepine-2-carboxamide] | 0.001 to 0.1
11 | CNC1CN(C)C(=O)c2c3c(nn2C1)CCN(C(=O)Nc1ccc(F)c(Cl)c1)C3 (stereo not shown) [Compound 050, N-(3-chloro-4-fluorophenyl)-10-methyl-8-(methylamino)-11-oxo-1,3,4,7,8,9,10,11-octahydro-2H-pyrido[4′,3′:3,4]pyrazolo[1,5-a][1,4]diazepine-2-carboxamide] | 0.1 to 0.5
12 | O=C(Nc1ccc(F)c(Cl)c1)N1CCc2nn3c(c2C1)C(=O)N(CC(F)(F)F)CC(CO)C3 (stereo not shown) [Compound 051, N-(3-chloro-4-fluorophenyl)-8-(hydroxymethyl)-11-oxo-10-(2,2,2-trifluoroethyl)-1,3,4,7,8,9,10,11-octahydro-2H-pyrido[4′,3′: 3,4]pyrazolo[1,5-a][1,4]diazepine-2-carboxamide] | 0.001 to 0.1
13 | CCOC(=O)C1(C)CN(C)C(=O)c2c3c(nn2C1)CCN(C(=O)Nc1ccc(F)c(Cl)c1)C3 (stereo not shown) [Compound 052, ethyl 2-((3-chloro-4-fluorophenyl)carbamoyl)-8,10-dimethyl-11-oxo-1,3,4,7,8,9,10,11-octahydro-2H-pyrido[4′,3′:3,4]pyrazolo[1,5-a][1,4]diazepine-8-carboxylate] | 0.1 to 0.5
14 | CN1CC(C)(CO)Cn2nc3c(c2C1=O)CN(C(=O)Nc1ccc(F)c(Cl)c1)CC3 (stereo not shown) [Compound 053, N-(3-chloro-4-fluorophenyl)-8-(hydroxymethyl)-8,10-dimethyl-11-oxo-1,3,4,7,8,9,10,11-octahydro-2H-pyrido[4′,3′:3,4]pyrazolo[1,5-a][1,4]diazepine-2-carboxamide] | 0.001 to 0.1
15 | CN1CC(N2CCC(F)(F)C2)Cn2nc3c(c2C1=O)CN(C(=O)Nc1ccc(F)c(Cl)c1)CC3 (stereo not shown) [Compound 054, N-(3-chloro-4-fluorophenyl)-8-(3,3-difluoropyrrolidin-1-yl)-10-methyl-11-oxo-1,3,4,7,8,9,10,11-octahydro-2H-pyrido[4′,3′:3,4]pyrazolo[1,5-a][1,4]diazepine-2-carboxamide] | 0.1 to 0.5
16 | CN1CC(N2CCCCC2)Cn2nc3c(c2C1=O)CN(C(=O)Nc1ccc(F)c(Cl)c1)CC3 (stereo not shown) [Compound 055, N-(3-chloro-4-fluorophenyl)-10-methyl-11-oxo-8-(piperidin-1-yl)-1,3,4,7,8,9,10,11-octahydro-2H-pyrido[4′,3′:3,4]pyrazolo[1,5-a][1,4]diazepine-2-carboxamide] | 0.1 to 0.5
17 | CN1CC(N2CCC(F)(F)CC2)Cn2nc3c(c2C1=O)CN(C(=O)Nc1ccc(F)c(Cl)c1)CC3 (stereo not shown) [Compound 056, N-(3-chloro-4-fluorophenyl)-8-(4,4-difluoropiperidin-1-yl)-10-methyl-11-oxo-1,3,4,7,8,9,10,11-octahydro-2H-pyrido[4′,3′:3,4]pyrazolo[1,5-a][1,4]diazepine-2-carboxamide] | 0.1 to 0.5
18 | COC(=O)C1CCn2nc3c(c2C(=O)N1C)CN(C(=O)Nc1ccc(F)c(Cl)c1)CC3 (stereo not shown) [Compound 057, methyl 2-((3-chloro-4-fluorophenyl)carbamoyl)-10-methyl-11-oxo-1,3,4,7,8,9,10,11-octahydro-2H-pyrido[4′,3′:3,4]pyrazolo[1,5-a][1,4]diazepine-9-carboxylate] | 0.1 to 0.5
19 | CN1C(=O)c2c3c(nn2CCC1C(=O)O)CCN(C(=O)Nc1ccc(F)c(Cl)c1)C3 (stereo not shown) [Compound 058, 2-((3-chloro-4-fluorophenyl)carbamoyl)-10-methyl-11-oxo-1,3,4,7,8,9,10,11-octahydro-2H-pyrido[4′,3′:3,4]pyrazolo[1,5-a][1,4]diazepine-9-carboxylic acid] | > 1
20 | CN(C)C(=O)C1CCn2nc3c(c2C(=O)N1C)CN(C(=O)Nc1ccc(F)c(Cl)c1)CC3 (stereo not shown) [Compound 059, N2-(3-chloro-4-fluorophenyl)-N9,N9,10-trimethyl-11-oxo-1,3,4,7,8,9,10,11-octahydro-2H-pyrido[4′,3′:3,4]pyrazolo[1,5-a][1,4]diazepine-2,9-dicarboxamide] | 0.1 to 0.5
21 | CN1C(=O)c2c3c(nn2CCC1(C)CO)CCN(C(=O)Nc1ccc(F)c(Cl)c1)C3 (stereo not shown) [Compound 061, N-(3-chloro-4-fluorophenyl)-9-(hydroxymethyl)-9,10-dimethyl-11-oxo-1,3,4,7,8,9,10,11-octahydro-2H-pyrido[4′,3′:3,4]pyrazolo[1,5-a][1,4]diazepine-2-carboxamide] | 0.001 to 0.1
22 | CN1C(=O)c2c3c(nn2CCC1(C)C(=O)O)CCN(C(=O)Nc1ccc(F)c(Cl)c1)C3 (stereo not shown) [Compound 062, 2-((3-chloro-4-fluorophenyl)carbamoyl)-9,10-dimethyl-11-oxo-1,3,4,7,8,9,10,11-octahydro-2H-pyrido[4′,3′:3,4]pyrazolo[1,5-a][1,4]diazepine-9-carboxylic acid] | > 1
23 | CN1CC(CN2CCOCC2)Cn2nc3c(c2C1=O)CN(C(=O)Nc1ccc(F)c(Cl)c1)CC3 (stereo not shown) [Compound 063, N-(3-chloro-4-fluorophenyl)-10-methyl-8-(morpholinomethyl)-11-oxo-1,3,4,7,8,9,10,11-octahydro-2H-pyrido[4′,3′:3,4]pyrazolo[1,5-a][1,4]diazepine-2-carboxamide] | 0.001 to 0.1
24 | CN1CC(CN2CCCCC2)Cn2nc3c(c2C1=O)CN(C(=O)Nc1ccc(F)c(Cl)c1)CC3 (stereo not shown) [Compound 064, N-(3-chloro-4-fluorophenyl)-10-methyl-11-oxo-8-(piperidin-1-ylmethyl)-1,3,4,7,8,9,10,11-octahydro-2H-pyrido[4′,3′:3,4]pyrazolo[1,5-a][1,4]diazepine-2-carboxamide] | 0.1 to 0.5
25 | CN(C)CC1CN(C)C(=O)c2c3c(nn2C1)CCN(C(=O)Nc1ccc(F)c(Cl)c1)C3 (stereo not shown) [Compound 065] | 0.1 to 0.5
26 | CN1CC(CN2CCC(F)(F)C2)Cn2nc3c(c2C1=O)CN(C(=O)Nc1ccc(F)c(Cl)c1)CC3 (stereo not shown) [Compound 066, N-(3-chloro-4-fluorophenyl)-8-((3,3-difluoropyrrolidin-1-yl)methyl)-10-methyl-11-oxo-1,3,4,7,8,9,10,11-octahydro-2H-pyrido[4′,3′:3,4]pyrazolo[1,5-a][1,4]diazepine-2-carboxamide] | 0.001 to 0.1
27 | CN1CC(CN2CCC(F)(F)C2)Cn2nc3c(c2C1=O)CN(C(=O)Nc1ccc(F)c(C#N)c1)CC3 (stereo not shown) [Compound 067, N-(3-cyano-4-fluorophenyl)-8-((3,3-difluoropyrrolidin-1-yl)methyl)-10-methyl-11-oxo-1,3,4,7,8,9,10,11-octahydro-2H-pyrido[4′,3′:3,4]pyrazolo[1,5-a][1,4]diazepine-2-carboxamide] | 0.1 to 0.5
28 | CN1CC(CN2CCC(F)(F)C2)Cn2nc3c(c2C1=O)CN(C(=O)Nc1ccc(F)c(C(F)(F)F)c1)CC3 (stereo not shown) [Compound 068, 8-((3,3-difluoropyrrolidin-1-yl)methyl)-N-(4-fluoro-3-(trifluoromethyl)phenyl)-10-methyl-11-oxo-1,3,4,7,8,9,10,11-octahydro-2H-pyrido[4′,3′:3,4]pyrazolo[1,5-a][1,4] diazepine-2-carboxamide] | 0.1 to 0.5
